For eight compounds, IC50 results are on record in patent publication US20260356856A1, “KRAS G12S AND G12C INHIBITORS” (MIRATI THERAPEUTICS, INC., priority 2023, published 2026).

Assay in all cases: KRas binding assay, TR-FRET displacement of Cy5 labelled tracer
What all share (details): 60-minute incubation at room temperature, 1% DMSO, pH 7.5
In general terms: Time-resolved FRET reads energy transfer from a long-lived donor to a nearby acceptor.

In one assay the target is T1, KRas WT (Homo sapiens, UniProt P01116).
T1 construct: Biotinylated KRas (corresponding to amino acids 1-169, produced at Accelegan Inc.); biotin (biotinylated); purchased Accelegan Inc
T1 sequence (P01116 1-169 isoform P01116-2): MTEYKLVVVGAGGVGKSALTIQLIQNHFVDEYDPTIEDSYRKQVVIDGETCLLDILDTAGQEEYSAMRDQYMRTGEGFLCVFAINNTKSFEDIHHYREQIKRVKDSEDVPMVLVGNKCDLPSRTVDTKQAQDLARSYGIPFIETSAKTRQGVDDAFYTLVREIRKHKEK
As to the method:
(§1) This Example illustrates that exemplary compounds of the present invention bind to KRas and are capable of displacing a labeled tracer ligand occupying the KRas binding site. KRas^WT, KRas^G12A, KRas^G12C, KRas^G12D, KRas^G12R, KRas^G12S, KRas^G12V, KRas^G13D, or KRas^Q61H was used in the assay.
(§2) The ability of a compound to bind to KRas was measured using a TR-FRET displacement assay. Biotinylated KRas (corresponding to amino acids 1-169, produced at Accelegan Inc.) was incubated with custom made Cy5 labelled tracer, terbium streptavidin (Cisbio Inc.) and compound (1% DMSO final) in buffer (50 mM HEPES, pH 7.5, 5 mM MgCl2, 0.005% Tween-20 and 1 mM DTT). After a 60-minute incubation at room temperature, the reaction was measured using a BMG LABTECH CLARIO star Plus via TR-FRET. […] The POC values were fit to a 4-parameter IC50 equation and the IC50 value reported.

The target of another assay is T2, KRas G12C (Homo sapiens, UniProt P01116, G12C).
T2 construct: Biotinylated KRas (corresponding to amino acids 1-169, produced at Accelegan Inc.); biotin (biotinylated); purchased Accelegan Inc
T2 sequence (P01116 1-169 isoform P01116-2 G12C): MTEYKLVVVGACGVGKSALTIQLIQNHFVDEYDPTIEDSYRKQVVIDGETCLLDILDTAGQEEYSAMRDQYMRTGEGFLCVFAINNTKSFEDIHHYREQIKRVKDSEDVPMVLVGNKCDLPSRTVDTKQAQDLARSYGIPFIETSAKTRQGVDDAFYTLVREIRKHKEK
On the procedure:
as §1, §2

A further assay deals with T3, KRas G12S (Homo sapiens, UniProt P01116, G12S).
T3 construct: Biotinylated KRas (corresponding to amino acids 1-169, produced at Accelegan Inc.); biotin (biotinylated); purchased Accelegan Inc
T3 sequence (P01116 1-169 isoform P01116-2 G12S): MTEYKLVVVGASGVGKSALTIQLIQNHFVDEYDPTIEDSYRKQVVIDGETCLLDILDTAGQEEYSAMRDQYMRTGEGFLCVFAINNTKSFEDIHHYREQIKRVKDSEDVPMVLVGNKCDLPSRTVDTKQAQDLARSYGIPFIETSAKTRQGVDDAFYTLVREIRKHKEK
As to the method:
as §1, §2

A value given as a limit tells only on which side of the number the result lay.

One may read the IC50 as the concentration that gives 50% inhibition. Read a high IC50 as weaker potency. With `O=C(Oc1c(F)cccc1F)[C@@H]1[C@@H]2C[C@H]1CN(c1nc(OCC34CCCN3CCC4)nc3c(F)c(-c4cccc5cccc(F)c45)ncc13)C2` [Example 5, 2,6-difluorophenyl (1R,5S,6r)-3-(8-fluoro-7-(8-fluoronaphthalen-1-yl)-2-((tetrahydro-1H-pyrrolizin-7a(5H)-yl)methoxy)pyrido[4,3-d]pyrimidin-4-yl)-3-azabicyclo[3.1.1]heptane-6-carboxylate], the half-inhibitory concentration (IC50) worked out at 34400 nM at KRas WT, 7570 nM at KRas G12C and 26500 nM on KRas G12S.
For `O=C(Oc1ccccc1)[C@@H]1[C@@H]2CC[C@H]1CN(c1nc(OCC34CCCN3CCC4)nc3c(F)c(-c4cccc5cccc(F)c45)ncc13)C2` [Example 26, phenyl (1R,5S,8r)-3-(8-fluoro-7-(8-fluoronaphthalen-1-yl)-2-((tetrahydro-1H-pyrrolizin-7a(5H)-yl)methoxy)pyrido[4,3-d]pyrimidin-4-yl)-3-azabicyclo[3.2.1]octane-8-carboxylate] the same measures were 10600 nM, 92800 nM and 75600 nM.
For `CCc1c(F)ccc2cc(O)cc(-c3ncc4c(N(C)CCCC(=O)NC(C)=O)nc(OC[C@@]56CCCN5C[C@H](F)C6)nc4c3F)c12` [Example 325, N-acetyl-4-((7-(8-ethyl-7-fluoro-3-hydroxynaphthalen-1-yl)-8-fluoro-2-(((2R,7aS)-2-fluorotetrahydro-1H-pyrrolizin-7a(5H)-yl)methoxy)pyrido[4,3-d]pyrimidin-4-yl)(methyl)amino)butanamide] the same measures were 23 nM, 12 nM and 14 nM.
In the same order, the values of `O=C(Nc1ccccn1)C1CCN(c2nc(OCC34CCCN3CCC4)nc3c(F)c(-c4cccc5cccc(F)c45)ncc23)CC1` [Example 3, 1-(8-fluoro-7-(8-fluoronaphthalen-1-yl)-2-((tetrahydro-1H-pyrrolizin-7a(5H)-yl)methoxy)pyrido[4,3-d]pyrimidin-4-yl)-N-(pyridin-2-yl)piperidine-4-carboxamide] are 649 nM, 582 nM and 346 nM.
As for `O=C(Oc1cccc(F)c1F)C1CCN(c2nc(OCC34CCCN3CCC4)nc3c(F)c(-c4cccc5cccc(F)c45)ncc23)CC1` [Example 34, 2,3-difluorophenyl 1-(8-fluoro-7-(8-fluoronaphthalen-1-yl)-2-((tetrahydro-1H-pyrrolizin-7a(5H)-yl)methoxy)pyrido[4,3-d]pyrimidin-4-yl)piperidine-4-carboxylate], the concentration for half-maximal inhibition (IC50) at KRas WT is over 100000 nM; on KRas G12C it was 7890 nM; on KRas G12S, over 100000 nM.
On to `O=C[C@@H]1[C@@H]2CC[C@H]1CN(c1nc(OCC34CCCN3CCC4)nc3c(F)c(-c4cccc5cccc(F)c45)ncc13)C2` [Example 17, (1R,5S,8r)-3-(8-fluoro-7-(8-fluoronaphthalen-1-yl)-2-((tetrahydro-1H-pyrrolizin-7a(5H)-yl)methoxy)pyrido[4,3-d]pyrimidin-4-yl)-3-azabicyclo[3.2.1]octane-8-carbaldehyde], for which the half-inhibitory concentration (IC50) amounted to 5780 nM on KRas WT, 1080 nM at KRas G12C and 15300 nM at KRas G12S.
For `O=CC1CCN(c2nc(OCC34CCCN3CCC4)nc3c(F)c(-c4cccc5cccc(F)c45)ncc23)CC1` [Example 38, 1-(8-fluoro-7-(8-fluoronaphthalen-1-yl)-2-((tetrahydro-1H-pyrrolizin-7a(5H)-yl)methoxy)pyrido[4,3-d]pyrimidin-4-yl)piperidine-4-carbaldehyde], the figures for the IC50 at KRas WT, at KRas G12C and on KRas G12S were 19300 nM, 761 nM and 27900 nM, respectively.
Take `COC(=O)[C@@H]1CCN(c2nc(OCC34CCCN3CCC4)nc3c(F)c(-c4cccc5cccc(F)c45)ncc23)C[C@@H]1O` [Example 47, methyl (3R,4R)-1-(8-fluoro-7-(8-fluoronaphthalen-1-yl)-2-((tetrahydro-1H-pyrrolizin-7a(5H)-yl)methoxy)pyrido[4,3-d]pyrimidin-4-yl)-3-hydroxypiperidine-4-carboxylate]: the IC50 on KRas WT, at KRas G12C and on KRas G12S was over 100000 nM each time.
